What was measured:
[1] = test system: IL-6
Protocol: (§1) FIG. 6. Effect of TRIP and PV combination treatment on serum cytokine levels. Serum cytokines were assessed by multiplex immunoassay 48 hours following the final dose of PV, which was administered as 8 weekly 10-μg doses. TRIP was administered daily for the last 14 days of the study.
(§2) A total of 43 wild type C57BL/6 mice were assigned to four different treatment groups: Control (n=10); and TRIP (i.e., ospemifene) 10, 50, and 100 mg/kg (n=11, all TRIP groups). All mice received a full course of tecemotide (L-BLP25) peptide vaccine (PV) immunotherapy (eight weekly 10 μg doses administered subcutaneously (s.c.) as described in Wurz G T. et al., J. Transl. Med., 11:64 (2013)). During the final 16 days of immunotherapy, mice received daily oral doses of TRIP according to treatment group assignment. TRIP oral dosing solutions were prepared by dissolving an appropriate amount of the drug in pure dimethyl sulfoxide (DMSO) and then adding peanut oil to the desired final concentration (final DMSO concentration was 2%). All doses were administered in a volume of 100 μl using 20-gauge stainless steel oral feeding needles. Control mice were given diluent only. Forty-eight hours following the final dose of PV, all mice were euthanized for the collection of blood for cytokine analysis by multiplex and spleens for assessing immune response by enzyme-linked immunosorbent spot (ELISpot) assay.

[2] = test system: IFN-γ; conditions: non-tumor bearing mice, 48 hours after final PV dose
Protocol: as §1, §2

[3] = test system: cytotoxic T lymphocyte activity; conditions: TRIP 50 mg/kg daily oral 16 days + PV
Protocol: Effects of short-course TRIP dosing regimens on cytotoxic T lymphocyte activity. Average target cell apoptosis percentages (+SEM) were assessed in control (n=10), one cycle of PV (n=11), short-course TRIP (16 days; 10 mg/kg, TRIP 10; 50 mg/kg, TRIP 50; n=11), and PV+TRIP combination (n=11) treatment groups. PV=peptide vaccine; *p<0.05.
A total of 65 male human MUC1.Tg C57BL/6 mice underwent urethane lung tumor induction as described (Wurz G T. et al., J. Transl. Med., 11:64 (2013)) starting at approximately five weeks of age. In Week 20, six weeks after the last dose of urethane, mice were randomized into six treatment groups of approximately equal average weight: Control (n=10); TRIP (i.e., ospemifene) 10 mg/kg (n=11); TRIP 50 mg/kg (n=11); tecemotide (L-BLP25) peptide vaccine (PV) alone (n=11); TRIP 10 mg/kg+PV (n=11); and TRIP 50 mg/kg+PV (n=11). Starting in Week 20, all mice in the PV treatment groups were administered eight weekly 10 μg doses by subcutaneous (s.c.) injection (100 μl) at rotating sites using a 25-gauge needle. […]
Average target cell apoptosis percentages (+SEM) were assessed in control (n=10), one cycle of PV (n=11), short-course TRIP (16 days; 10 mg/kg, TRIP 10; 50 mg/kg, TRIP 50; n=11), and PV+TRIP combination (n=11) treatment groups. […]

[4] = test system: IFN-γ; assay: Experiment 4: IFN-γ ELISpot after short-course TRIP and PV in lung tumor-bearing mice; assay type: in vivo, human MUC1.Tg C57BL/6 mice; conditions: short-course (16-day) TRIP 10 or 50 mg/kg + one cycle of PV
Protocol: Effect of short-course (16-day) TRIP treatment on IFN-γ immune response. […] Lymphocytes were isolated following treatment with one cycle of PV, TRIP 10 mg/kg, TRIP 50 mg/kg, or combinations (n=10-11). PV=peptide vaccine.
A total of 65 male human MUC1.Tg C57BL/6 mice underwent urethane lung tumor induction as described (Wurz G T. et al., J. Transl. Med., 11:64 (2013)) starting at approximately five weeks of age. […] Starting in Week 20, all mice in the PV treatment groups were administered eight weekly 10 μg doses by subcutaneous (s.c.) injection (100 μl) at rotating sites using a 25-gauge needle. […] All other mice received daily oral doses of the control solution. Twenty-four hours after the final dose of TRIP and 48 hours after the last dose of PV (Week 27), all mice were euthanized for the collection of serum and spleens, which were processed appropriately for ELISpot and CTL assays. For the ELISpot assay, n=4-5.

[5] = test system: IFN-γ; assay: IFN-γ mRNA expression in Jurkat cells by qRT-PCR, normalized with GAPDH; assay type: cell-based, human
Protocol: FIG. 1. Interferon gamma (IFN-γ) and interleukin (IL)-2 expression in human Jurkat cells following exposure to TRIP in vitro. Jurkat cells (2×10^6) were treated with different concentrations of TRIP as indicated for 24 hours. (A) IFN-γ and (B) IL-2 mRNA expression levels were detected by quantitative real-time polymerase chain reaction (qRT-PCR) and normalized with the expression of GAPDH. *p<0.05, **p<0.01, ***p<0.001.
FIG. 2. Effect of tamoxifen on TRIP-induced expression of IFN-γ in vitro. Jurkat cells (2×10^6) were treated with TRIP (2.5 μM) and/or tamoxifen (2.5 μM) for 24 hours. The expression levels of IFN-γ were analyzed by qRT-PCR and normalized with GAPDH. **p<0.01, ***p<0.005.
FIG. 3. Effects of TRIP alone and in combination with trifluoperazine (TFP) or LY294002 (LY) on IFN-γ and IL-2 in human Jurkat cells in vitro. Jurkat cells (2×10^6) were pretreated with different concentrations of (A, B) TFP (0, 0.1, 1.0, 5.0, and 10.0 μM) and (C, D) LY294002 (0, 1, 5, 10, and 25 μM) for 1 hour, then incubated with medium containing 2.5 μM of TRIP for 24 hours. (A, C) IFN-γ and (B, D) IL-2 mRNA expression levels were detected by qRT-PCR and normalized with the expression of GAPDH. *p<0.05, **p<0.01, ***p<0.001.
FIG. 4. Effects of calmodulin, PI3K and MAPK inhibition on TRIP-induced expression of IFN-γ and IL-2 in human Jurkat cells in vitro. Jurkat cells (2×10^6) were pretreated with PD98059 (50 μM), TFP (10 μM) and LY294002 (25 μM) for 1 hour, then incubated with medium containing 2.5 μM of TRIP for 24 hours. (A) IFN-γ and (B) IL-2 mRNA expression levels were detected by qRT-PCR and normalized with the expression of GAPDH. **p<0.01, ***p<0.001, ****p<0.0001.
The potential immune regulating effects of TRIP and the possible mechanism(s) involved were determined with in vitro experiments examining the expression of T cell activating cytokines in human acute T cell leukemia Jurkat cells. The expression of IFN-γ and IL-2 RNA following exposure to increasing concentrations of TRIP (i.e., ospemifene) were first examined, followed by the effects of combining tamoxifen with TRIP on the expression of these cytokines. Different inhibitors of key T cell activation pathways—trifluoperazine (TFP), an inhibitor of calmodulin, LY294002, an inhibitor of PI3K, and PD98059, a MAPK inhibitor—in combination with TRIP were assessed for their effects on TRIP-induced expression of IFN-γ and IL-2 in Jurkat cells.
Jurkat cells (2.0×10^6) were treated with different concentrations of TRIP as indicated on the x-axis for 24 hours. (A) IFN-γ and (B) IL-2 mRNA expression levels were detected by quantitative real-time polymerase chain reaction (qRT-PCR) and normalized with the expression of GAPDH. *p<0.05, **p<0.01, ***p<0.001.
The expression levels of IFN-γ were analyzed by qRT-PCR and normalized with GAPDH. **p<0.01, ***p<0.001.
T cell activation requires multiple signals including PI3K, MAPK and calcium signaling pathways, and in order to identify the potential mechanism through which TRIP affects immune activation, Jurkat cells (2.0×10^6) were pretreated with different concentrations of TFP (0, 0.1, 1.0, 5.0 and 10.0 μM) (A, B) or LY294002 (0, 1, 5, 10 and 25 μM) (C, D) for one hour, then incubated with medium containing 2.5 μM TRIP for 24 hours. IFN-γ and IL-2 expression levels were detected by qRT-PCR and normalized with the expression of GAPDH. *p<0.05, **p<0.01, ***p<0.001.
Jurkat cells (2×10^6) were pretreated with PD98059 (50 μM), TFP (10 μM) or LY294002 (25 μM) for one hour, then incubated with medium containing 2.5 μM TRIP for 24 hours. (A) IFN-γ and (B) IL-2 mRNA expression levels were detected by qRT-PCR and normalized with expression of GAPDH. **p<0.01, ***p<0.001, ****p<0.0001.
The effects on T cell activation of different functional group substitutions on the TRIP chemical structure (Formula Ia) were examined by measuring the expression of IFN-γ and IL-2 RNA in human acute T cell leukemia Jurkat cells in vitro. […]

In the case of `OCCOc1ccc(/C(=C(/CCCl)c2ccccc2)c2ccccc2)cc1` [TRIP, Z-2-[4-(4-chloro-1,2-diphenyl-but-1-enyl)-phenoxy]ethanol], the “serum concentrations of IL-6, TRIP 100 mg/kg and PV compared to PV alone” value ([1]; TRIP 100 mg/kg + PV) is reported as “significantly lower”, the “serum IL-6 concentrations, TRIP and PV vs PV alone” value ([1]; non-tumor bearing mice, 48 hours after final PV dose) is reported as “dose-dependently decreased” and the “serum IFN-γ levels, TRIP and PV vs PV alone” value [2] is reported as “increased”. The “induction of CTL activity, PV with short-course TRIP compared to TRIP or PV treatments alone” value [3] was “significantly boosted”, the “IFN-γ immune response by ELISpot, TRIP in combination with the PV” value [4] was “equivalent increase” and the “expression of IFN-γ compared to control, TRIP+tamoxifen” value ([5]; Jurkat cells, TRIP 2.5 μM plus tamoxifen 2.5 μM, 24 hours (FIG. 2)) was “significantly increased”. For the same compound, the “IFN-γ RNA expression compared to control” value ([5]; Jurkat cells, different concentrations of TRIP, 24 hours, dose-dependent (FIG. 1A)) was “significantly induced”, the “expression of IFN-γ compared to control” value ([5]; Jurkat cells, single agent 2.5 μM, 24 hours (FIG. 2)) was “significantly increased” and the “IFN-γ Expression” value ([5]; mRNA in Jurkat cells in vitro, relative to control sample without TRIP compound) was “+++ (strong increase)”.

Source: patent US10154970B2, “Methods for immunomodulation of cancer and infectious disease therapy” (The Regents of the University of California, priority 2014, dated 2018)
